Source: patent US7354611B1, “Fecundity-promoting supplement for the insidious flower bug reared on artificial diet” (The United States of America as represented by the …, priority 2003, dated 2008)

Test system: Orius insidiosus
Experiment: Orius insidiosus fecundity (oviposition) bioassay: adults fed artificial diet with or without supplement, cumulative eggs laid/female counted on green bean
Format: in vivo
Conditions: Test 2
Description: Newly emerged adults of Orius insidiosus (<24 hour eclosion) were obtained from a commercial producer of beneficial insects (Entomos, Gainesville, Fla.). The insects were placed on the experimental diets on the third day after eclosion. Each diet treatment consisted of six females and four males in a 100-ml plant tissue culture jar (Sigma, St. Louis, Mo.) with four jars per treatment. Each jar contained one paraffin-encapsulated water dome (50 μl), two artificial diet domes (50 μl), one 7-cm section of green bean pod for oviposition, and three crumpled strips of wax paper (5 mm×80 mm) as substrates for the insects to crawl on. Artificial diet jars contained only artificial diet. Experimental diet jars contained artificial diet plus a supplement. Plodia egg (standard) jars each contained approximately 75 Ploida interpunctella eggs (approximately 3 mg) in place of diet. Although eggs from Euphestia kuehniella are generally used by commercial producers, eggs from P. interpunctella were used because O. insidiosus feeds readily on their eggs. Green beans were removed every other day and examined under a microscope to count eggs and then replaced with a fresh green bean section and mortality was also recorded within each jar. Plodia eggs and domes of water and diet were replaced on the same days that the green beans were removed for counting eggs. The insects were held in a growth chamber at about 25.50±1° C., with approximately 75±5% relative humidity, and a photoperiod of 15:9 (light:dark) hours. The experiments were carried out until the females in all treatments ceased oviposition, approximately 28 days. Diets were prepared under aseptic conditions in a clean room and encapsulated in Parafilm using a diet encapsulation apparatus as described in Ferkovich et al. (BioControl, Volume 45, 401-413, 2000).
The artificial diet was developed for rearing Orius sauteri (Weiru and Ren, 1989, supra), and consisted of approximately 4.0 grams brewers yeast, 0.4 grams sucrose, 2.1 grams soy protein acid hydrolysate, 0.046 grams of 99% palmitic acid (all from Sigma, St. Louis, Mo.), 0.5 grams chicken egg yolk, and 1.0 gram honey in 12 ml distilled water. Palmitic acid was mixed with the egg yolk component before adding it to the diet.
Two tests were conducted. In the first test, artificial diet was compared with the experimental diets which were composed of artificial diet supplemented with homogenized Plodia eggs, and protein and lipid extracts from Plodia eggs as described above. Each experimental diet was compared against the control artificial diet in an independent experiment on different dates. In the second test, any of the statistically significant experimental diets from the first test were then simultaneously compared with the experimental diets containing non-insect supplements.
Each treatment in both tests was replicated four times with 6 females and 4 males/replication. The cumulative number of eggs laid/female on artificial diet and on experimental diet were calculated relative to the percent eggs laid/female on Plodia eggs (standard); thus, mean ±S.E.=[#eggs laid per female on either artificial diet or experimental diet divided by # eggs laid per female on Plodia eggs]×100, n=4. The egg counts were adjusted for mortality. The egg counts per female were calculated for each replication. Data was analyzed by ANOVA using StatMost Software (Dataxiom Software Inc.). […]

[1] = Bovine Serum Albumin 83.3 mg/ml diet
[2] = Bovine Serum Albumin 166.7 mg/ml diet

“Bovine Serum Albumin: Bovine Serum albumin, Fraction V powder, Sigma” was tested, and the “% of Plodia egg Standard ± SE” value [1] was 51.3 ± 4.1%, the “Mean no. eggs/female ± SE” value [1] was 19.7 ± 1.6 eggs/female and the “% of Plodia egg Standard ± SE” value [2] was 64.9 ± 4.2%. The “Mean no. eggs/female ± SE” value [2] was 24.9 ± 1.6 eggs/female and the “effect on cumulative mean number of egg oviposited/female” value (versus artificial diet (Table 2)) was “significantly increased”.
